Here are results for one substance from patent US20090130707A1, “Methods of reducing the inhibitory effect of a redox active metal ion on the enzymatic hydrolysis of cellulosic material” (priority 2007, published 2009).

Experiment [1] concerns Cellulolytic Enzyme Composition #1. Description: mini-plate-scale AVICEL hydrolysis by Cellulolytic Enzyme Composition #1. In kind it is biochemical, Trichoderma reesei.
Experiment [2] has the same test system. Description: mini-plate-scale PASC hydrolysis by Cellulolytic Enzyme Composition #1. The class given is biochemical, Trichoderma reesei.
Experiment [3] has the same test system. The experiment can be described thus: mini-scale AVICEL hydrolysis by Cellulolytic Enzyme Composition #1. In kind it is biochemical, Trichoderma reesei. On the procedure: FIGS. 19A, 19B, 19C, and 19D show the effective inhibitory concentration range of Fe(II) on the hydrolysis of AVICEL® by Cellulolytic Enzyme Composition #1 (A and B) and on the hydrolysis of PASC by Cellulolytic Enzyme Composition #1 (C and D). The AVICEL® hydrolysis was conducted with […] of AVICEL® and 0.25 g of Cellulolytic Enzyme Composition #1 per liter of 50 mM sodium acetate pH 5 at 50° C. FeSO4 (mM): (∘) 0, (+) 1, (Δ) 3, (⋄) 5, (□) 10. Dixon plot linear regression line: 1/Rate=(0.035±0.003)[Fe(II)]+(0.043±0.015), r^2=0.978. Rate was estimated from the hydrolysis difference (%) at 24 and 6 hours. The PASC hydrolysis was conducted with 2 g of PASC and 50 mg of Cellulolytic Enzyme Composition #1 per liter of 50 mM sodium acetate pH 5 at 50° C. Dixon plot linear regression line: 1/Rate=(0.0042±0.0003)[Fe(II)]+(0.059±0.002), r^2=0.994. Rates were estimated from the hydrolysis difference (%) at 7 hours.
The effect of various salts (FeSO4, FeCl2, NaCl, Na2SO4, MnSO4, MnCl2) was determined in the hydrolysis of PCS by Cellulolytic Enzyme Composition #2. The PCS hydrolysis was performed in duplicate in capped 1.7 ml EPPENDORF® tubes (“mini-scale”) containing 1 ml suspensions of 43.4 g of PCS (dry weight) per liter, 10 mM salts in 50 mM sodium acetate pH 5. Cellulolytic Enzyme Composition #2 was added at 0.25 g per liter. Reactions without the addition of the salt served as controls. The capped tubes were incubated at 50° C. in an INNOVA® 4080 incubator shaker (New Brunswick Scientific Co., Inc., Edison, N.J., USA) at 150 rpm.
In one series of “mini-scale” hydrolysis reactions performed according to the procedure described in Example 30, the effect of 1 mM to 10 mM FeSO4 was evaluated in the hydrolysis of AVICEL® by Cellulolytic Enzyme Composition #1.

Experiment [4] concerns the target T1, Trichoderma reesei Cel7A cellobiohydrolase I (Trichoderma reesei, UniProt P62694).
T1 construct: made in house
Description: PASC hydrolysis by Cel7A cellobiohydrolase I. In kind it is biochemical. Particulars: 10 mM FeSO4; 2 g PASC and 40 mg enzyme per liter (FIG. 20A).

The target of experiment [5] is Trichoderma reesei Cel6A cellobiohydrolase II (Trichoderma reesei, UniProt P07987). Particulars: 10 mM FeSO4; 2 g PASC and 40 mg enzyme per liter (FIG. 20B). On the procedure: The inhibitory effect of ferrous ion was determined on Trichoderma reesei Cel7A cellobiohydrolase I, Trichoderma reesei Cel6A cellobiohydrolase II, Trichoderma reesei Cel7B endoglucanase I, and Trichoderma reesei Cel5A endoglucanase II using PASC as substrate.
A series of duplicate “mini-scale” hydrolysis reactions were performed according to the procedure described in Example 30, except that 10 mM FeSO4 and 2 g of PASC (dry weight) and 40 mg of enzyme per liter of 50 mM sodium acetate pH 5 were used.

Experiment [6] concerns the target T2, Trichoderma reesei Cel7B endoglucanase I (Trichoderma reesei, UniProt P07981).
T2 construct: made in house; host or cells: Aspergillus oryzae JaL250
Description: PASC hydrolysis by Cel7B endoglucanase I. In kind it is biochemical. The conditions noted are these: 10 mM FeSO4; 2 g PASC and 40 mg enzyme per liter (FIG. 20C).

In experiment [7] the target is T3, Trichoderma reesei Cel5A endoglucanase II (Trichoderma reesei, UniProt P07982).
T3 construct: made in house; host or cells: Aspergillus oryzae JaL250 (transformant JaL250AlLo27)
Description: PASC hydrolysis by Cel5A endoglucanase II. The class given is biochemical. The conditions noted are these: 10 mM FeSO4; 2 g PASC and 40 mg enzyme per liter (FIG. 20D).

The target of experiment [8] is T4, Aspergillus oryzae CEL3A beta-glucosidase (Aspergillus oryzae, UniProt Q2UUD6).
T4 construct: made in house
Description: Cellobiose hydrolysis by CEL3A beta-glucosidase. In kind it is biochemical. Particulars: 10 mM FeSO4; 2 g cellobiose and 1 mg enzyme per liter (FIG. 21). On the procedure: The Fe(II) inhibition of Aspergillus oryzae CEL3A beta-glucosidase was measured similarly, except cellobiose replaced PASC. The initial rate vs Fe(II) concentration plots appeared as “mixed” type, whose complexity prevented extraction of Kis.

T2 sequence (P07981 23-459): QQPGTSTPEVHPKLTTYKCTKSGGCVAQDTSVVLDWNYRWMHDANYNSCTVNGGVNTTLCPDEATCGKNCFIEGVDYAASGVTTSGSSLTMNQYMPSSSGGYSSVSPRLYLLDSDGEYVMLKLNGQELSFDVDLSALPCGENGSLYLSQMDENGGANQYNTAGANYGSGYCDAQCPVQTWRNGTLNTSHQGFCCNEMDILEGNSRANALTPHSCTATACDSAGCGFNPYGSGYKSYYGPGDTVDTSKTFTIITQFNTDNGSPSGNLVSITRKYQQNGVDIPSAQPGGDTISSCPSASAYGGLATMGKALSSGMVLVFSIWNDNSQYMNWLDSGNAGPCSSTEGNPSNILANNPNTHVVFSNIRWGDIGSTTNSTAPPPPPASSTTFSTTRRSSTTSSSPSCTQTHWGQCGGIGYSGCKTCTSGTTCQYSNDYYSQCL
T1 sequence (P62694 18-513): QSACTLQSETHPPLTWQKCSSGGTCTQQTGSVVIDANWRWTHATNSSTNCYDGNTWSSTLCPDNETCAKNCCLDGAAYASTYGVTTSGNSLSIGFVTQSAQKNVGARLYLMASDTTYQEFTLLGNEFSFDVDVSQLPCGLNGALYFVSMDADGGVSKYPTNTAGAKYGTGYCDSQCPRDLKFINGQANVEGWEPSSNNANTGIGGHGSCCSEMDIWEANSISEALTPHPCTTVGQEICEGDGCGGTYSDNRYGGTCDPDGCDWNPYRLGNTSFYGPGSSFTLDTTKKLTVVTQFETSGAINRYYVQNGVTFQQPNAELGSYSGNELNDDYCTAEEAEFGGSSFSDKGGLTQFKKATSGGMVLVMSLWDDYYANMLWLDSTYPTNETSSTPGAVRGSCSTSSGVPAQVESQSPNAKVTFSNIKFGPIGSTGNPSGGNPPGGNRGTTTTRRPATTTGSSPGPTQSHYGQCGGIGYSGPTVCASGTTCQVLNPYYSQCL
T4 sequence (Q2UUD6 20-861): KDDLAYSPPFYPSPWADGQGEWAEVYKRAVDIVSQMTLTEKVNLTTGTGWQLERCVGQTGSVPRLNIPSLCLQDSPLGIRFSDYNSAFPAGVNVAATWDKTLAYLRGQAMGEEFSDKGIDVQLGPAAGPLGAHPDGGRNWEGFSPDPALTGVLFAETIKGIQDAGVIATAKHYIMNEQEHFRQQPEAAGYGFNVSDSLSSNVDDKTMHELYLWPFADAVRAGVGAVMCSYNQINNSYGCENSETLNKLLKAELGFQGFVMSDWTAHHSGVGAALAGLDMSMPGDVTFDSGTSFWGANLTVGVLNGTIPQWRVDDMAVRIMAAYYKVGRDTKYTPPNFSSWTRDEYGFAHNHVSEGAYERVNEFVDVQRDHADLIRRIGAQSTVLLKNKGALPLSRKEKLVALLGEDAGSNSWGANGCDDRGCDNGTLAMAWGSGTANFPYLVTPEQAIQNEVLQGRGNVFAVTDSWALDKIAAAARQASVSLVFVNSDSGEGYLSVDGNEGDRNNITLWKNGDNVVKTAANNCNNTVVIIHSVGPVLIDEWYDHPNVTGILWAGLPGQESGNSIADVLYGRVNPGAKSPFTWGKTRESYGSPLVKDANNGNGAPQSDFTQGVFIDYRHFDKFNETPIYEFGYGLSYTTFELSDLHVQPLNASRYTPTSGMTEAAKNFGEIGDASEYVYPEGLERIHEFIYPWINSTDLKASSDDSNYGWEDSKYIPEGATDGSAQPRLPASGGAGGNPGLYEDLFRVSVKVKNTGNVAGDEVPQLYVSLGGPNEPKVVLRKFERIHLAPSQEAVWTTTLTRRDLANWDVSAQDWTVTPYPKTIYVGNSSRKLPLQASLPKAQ
T3 sequence (P07982 22-418): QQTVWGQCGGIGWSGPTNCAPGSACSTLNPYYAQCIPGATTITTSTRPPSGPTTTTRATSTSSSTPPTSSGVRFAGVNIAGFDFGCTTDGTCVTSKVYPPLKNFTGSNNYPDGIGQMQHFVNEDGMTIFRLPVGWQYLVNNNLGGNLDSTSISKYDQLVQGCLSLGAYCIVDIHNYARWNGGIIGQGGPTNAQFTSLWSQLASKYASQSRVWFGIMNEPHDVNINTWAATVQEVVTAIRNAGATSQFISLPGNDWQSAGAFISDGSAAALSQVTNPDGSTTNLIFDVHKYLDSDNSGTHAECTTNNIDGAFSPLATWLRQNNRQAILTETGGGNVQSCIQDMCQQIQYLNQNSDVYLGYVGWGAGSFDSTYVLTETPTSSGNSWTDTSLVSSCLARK
Sequence of Trichoderma reesei Cel6A cellobiohydrolase II (P07987 25-471): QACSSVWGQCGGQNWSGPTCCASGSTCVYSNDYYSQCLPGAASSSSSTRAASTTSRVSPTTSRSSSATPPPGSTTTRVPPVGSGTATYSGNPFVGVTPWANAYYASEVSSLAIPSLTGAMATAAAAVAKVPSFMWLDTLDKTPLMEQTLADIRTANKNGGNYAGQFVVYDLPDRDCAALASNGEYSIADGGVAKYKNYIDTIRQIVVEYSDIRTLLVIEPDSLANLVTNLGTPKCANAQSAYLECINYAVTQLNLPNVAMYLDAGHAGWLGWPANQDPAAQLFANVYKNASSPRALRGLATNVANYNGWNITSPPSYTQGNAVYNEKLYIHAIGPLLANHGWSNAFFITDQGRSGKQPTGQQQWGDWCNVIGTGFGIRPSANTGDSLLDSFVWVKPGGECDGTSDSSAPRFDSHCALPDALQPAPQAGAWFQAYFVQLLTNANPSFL

Regarding Ferrous sulfate [FeSO4], the “Effect on hydrolysis over concentration range” value in experiment [1] (0.1 to 10 mM) was “concentration-dependent inhibition”. The “Type of inhibition (double-reciprocal plots)” value in experiment [1] (0.5 to 4 mM FeSO4, 0.6 to 4 g AVICEL per liter) is “mix-type inhibition”; in experiment [2] (0.1 to 10 mM FeSO4, 0.6 to 4 g PASC, 0.01 g enzyme per liter), “mix-type inhibition”. The “Concentration dependence of inhibition” value is reported as “increasingly inhibitory” in experiment [2] (1 mM to 10 mM FeSO4, PASC (FIG. 19C)) and “increasingly inhibitory” in experiment [3] (1 mM to 10 mM FeSO4, AVICEL (FIG. 19A)). The Ki in experiment [2] (on PASC, 2 g PASC and 0.05 g enzyme per liter, read-out: Ki (x-intercept of Dixon plot)) is roughly 14 mM; in experiment [3] (on AVICEL, 23 g AVICEL and 0.25 g enzyme per liter, read-out: Ki (x-intercept of Dixon plot)) it was roughly 1.3 mM. Moreover, the Effect on enzyme entry is recorded as “significantly inhibited” in experiment [4]; “significantly inhibited” in experiment [5]; “significantly inhibited” in experiment [6]; “significantly inhibited” in experiment [7]; “slightly inhibited” in experiment [8].

One may read the Ki as a dissociation constant, usually derived from enzyme kinetics or from competition with a known ligand.
